Tests used:
[1] = molecular target: Myosin light chain kinase 2, skeletal/cardiac muscle (Homo sapiens) (UniProt Q9H1R3); experiment: Selectivity interaction (Ambit KINOMEscan and KiNATiv profiling in Jurkat cells) EUB0000090b MYLK2; format: cell-based; conditions: at 1 µM
[2] = molecular target: Calcium/calmodulin-dependent protein kinase type 1 (Homo sapiens) (UniProt Q14012); experiment: Selectivity interaction (ActivX KiNativ screen (kinase selectivity in THP-1 cell lysates)) EUB0000639a CAMK1; format: subcellular; conditions: lysate, at 0.04 µM
[3] = molecular target: T1, Hormonally up-regulated neu tumor-associated kinase (Homo sapiens) (UniProt P57058); experiment: Selectivity interaction (KinomeScan (DiscoverX)) EUB0000695a HUNK; conditions: at 100 nM
T1 sequence (whole entry): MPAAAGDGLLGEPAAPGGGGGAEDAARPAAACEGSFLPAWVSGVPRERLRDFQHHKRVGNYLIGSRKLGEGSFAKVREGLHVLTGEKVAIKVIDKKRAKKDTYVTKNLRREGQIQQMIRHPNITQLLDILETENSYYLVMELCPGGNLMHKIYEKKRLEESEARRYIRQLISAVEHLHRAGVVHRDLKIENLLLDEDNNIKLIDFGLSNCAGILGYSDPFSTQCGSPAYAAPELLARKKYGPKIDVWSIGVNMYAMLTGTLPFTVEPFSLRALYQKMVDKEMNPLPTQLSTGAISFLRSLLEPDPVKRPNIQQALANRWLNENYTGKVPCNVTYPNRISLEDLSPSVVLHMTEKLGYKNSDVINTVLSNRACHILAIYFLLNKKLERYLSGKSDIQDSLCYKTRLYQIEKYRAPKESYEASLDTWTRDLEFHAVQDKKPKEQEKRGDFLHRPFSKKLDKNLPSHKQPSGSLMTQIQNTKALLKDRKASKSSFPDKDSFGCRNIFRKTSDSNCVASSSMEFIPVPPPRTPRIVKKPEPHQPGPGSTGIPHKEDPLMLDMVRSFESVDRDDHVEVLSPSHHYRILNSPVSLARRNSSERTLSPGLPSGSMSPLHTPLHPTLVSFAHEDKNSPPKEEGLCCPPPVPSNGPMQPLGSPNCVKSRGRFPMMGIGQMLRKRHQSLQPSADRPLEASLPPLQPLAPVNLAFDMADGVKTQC

[4] = molecular target: T2, Rhodopsin kinase GRK1 (Homo sapiens) (UniProt Q15835); experiment: Selectivity interaction (KinomeScan (DiscoverX)) EUB0000045b GRK1
T2 sequence (whole entry): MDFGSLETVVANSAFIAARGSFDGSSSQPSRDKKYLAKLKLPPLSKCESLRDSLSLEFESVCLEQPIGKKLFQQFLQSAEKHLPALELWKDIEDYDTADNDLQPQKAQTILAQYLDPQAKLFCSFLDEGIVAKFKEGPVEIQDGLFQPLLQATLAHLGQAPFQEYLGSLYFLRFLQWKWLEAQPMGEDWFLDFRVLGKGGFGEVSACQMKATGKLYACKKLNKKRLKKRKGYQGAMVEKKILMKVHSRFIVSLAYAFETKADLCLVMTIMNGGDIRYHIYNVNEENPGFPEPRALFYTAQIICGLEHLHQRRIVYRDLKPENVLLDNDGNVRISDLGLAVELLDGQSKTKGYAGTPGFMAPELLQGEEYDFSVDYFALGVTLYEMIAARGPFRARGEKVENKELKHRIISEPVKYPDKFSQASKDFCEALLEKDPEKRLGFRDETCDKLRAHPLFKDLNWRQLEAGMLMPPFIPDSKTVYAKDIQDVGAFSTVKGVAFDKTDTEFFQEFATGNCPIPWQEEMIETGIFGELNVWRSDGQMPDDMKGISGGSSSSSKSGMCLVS

[5] = molecular target: Ribosomal protein S6 kinase alpha-1 (Homo sapiens, UniProt Q15418); experiment: Selectivity interaction (ActivX KiNativ screen (ex vivo kinase selectivity in human PBMCs)) EUB0001619a RPS6KA1; format: cell-based; conditions: PBMC, at 1 µM
[6] = molecular target: T3, Mitogen-activated protein kinase kinase kinase 6 (Homo sapiens) (UniProt O95382); experiment: Selectivity interaction (KinomeScan (DiscoverX)) EUB0000618a MAP3K6; conditions: at 10 µM
T3 sequence (whole entry): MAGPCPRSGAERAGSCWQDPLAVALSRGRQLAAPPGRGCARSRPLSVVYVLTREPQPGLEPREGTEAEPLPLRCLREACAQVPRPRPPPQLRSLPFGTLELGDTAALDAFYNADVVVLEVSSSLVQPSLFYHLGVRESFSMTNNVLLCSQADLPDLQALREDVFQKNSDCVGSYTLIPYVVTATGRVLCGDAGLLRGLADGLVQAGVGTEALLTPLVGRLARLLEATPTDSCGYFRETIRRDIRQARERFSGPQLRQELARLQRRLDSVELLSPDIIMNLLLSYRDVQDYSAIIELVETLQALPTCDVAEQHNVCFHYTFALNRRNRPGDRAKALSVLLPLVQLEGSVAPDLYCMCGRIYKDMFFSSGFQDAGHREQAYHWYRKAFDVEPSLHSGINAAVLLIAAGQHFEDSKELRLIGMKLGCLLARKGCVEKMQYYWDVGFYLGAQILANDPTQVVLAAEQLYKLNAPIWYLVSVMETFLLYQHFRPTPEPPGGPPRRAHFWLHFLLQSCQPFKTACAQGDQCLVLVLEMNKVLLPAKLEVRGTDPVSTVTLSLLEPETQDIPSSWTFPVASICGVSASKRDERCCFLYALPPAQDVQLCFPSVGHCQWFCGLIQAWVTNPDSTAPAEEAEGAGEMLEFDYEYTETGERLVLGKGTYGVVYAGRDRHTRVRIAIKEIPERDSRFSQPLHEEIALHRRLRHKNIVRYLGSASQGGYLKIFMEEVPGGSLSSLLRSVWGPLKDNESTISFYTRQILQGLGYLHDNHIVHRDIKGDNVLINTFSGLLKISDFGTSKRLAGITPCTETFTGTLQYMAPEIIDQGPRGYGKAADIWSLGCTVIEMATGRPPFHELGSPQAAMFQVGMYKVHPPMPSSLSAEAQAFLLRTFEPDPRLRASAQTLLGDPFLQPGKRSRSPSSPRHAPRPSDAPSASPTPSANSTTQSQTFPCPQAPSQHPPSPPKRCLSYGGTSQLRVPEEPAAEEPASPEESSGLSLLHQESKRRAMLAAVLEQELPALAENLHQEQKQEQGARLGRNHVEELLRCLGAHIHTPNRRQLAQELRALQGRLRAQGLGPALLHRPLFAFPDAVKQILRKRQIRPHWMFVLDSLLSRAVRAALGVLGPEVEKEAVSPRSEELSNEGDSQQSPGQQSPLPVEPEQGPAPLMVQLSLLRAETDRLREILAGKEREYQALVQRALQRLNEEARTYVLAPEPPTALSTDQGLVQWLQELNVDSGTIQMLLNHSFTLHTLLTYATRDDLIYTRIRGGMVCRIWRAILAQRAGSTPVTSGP

[7] = molecular target: Proto-oncogene tyrosine-protein kinase Src (Homo sapiens, UniProt P12931); experiment: Selectivity interaction (KinomeScan (DiscoverX)) EUB0000607a SRC; conditions: at 10 µM
Chain of Proto-oncogene tyrosine-protein kinase Src (P12931 2-536 limits assumed): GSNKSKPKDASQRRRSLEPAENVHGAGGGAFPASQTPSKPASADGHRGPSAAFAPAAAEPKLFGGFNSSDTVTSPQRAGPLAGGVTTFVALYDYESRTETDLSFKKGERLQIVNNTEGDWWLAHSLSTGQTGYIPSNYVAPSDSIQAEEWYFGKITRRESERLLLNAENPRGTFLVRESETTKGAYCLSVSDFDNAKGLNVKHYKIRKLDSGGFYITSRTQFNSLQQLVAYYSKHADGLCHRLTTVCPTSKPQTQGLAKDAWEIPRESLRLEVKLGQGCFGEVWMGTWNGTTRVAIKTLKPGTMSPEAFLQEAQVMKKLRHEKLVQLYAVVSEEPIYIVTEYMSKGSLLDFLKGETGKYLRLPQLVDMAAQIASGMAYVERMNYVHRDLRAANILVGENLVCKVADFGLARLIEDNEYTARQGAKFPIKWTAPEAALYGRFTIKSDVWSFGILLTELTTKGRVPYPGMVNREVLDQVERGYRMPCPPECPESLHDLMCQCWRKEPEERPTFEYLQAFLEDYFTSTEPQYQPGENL

Chain of Myosin light chain kinase 2, skeletal/cardiac muscle (Homo sapiens) (Q9H1R3 whole entry): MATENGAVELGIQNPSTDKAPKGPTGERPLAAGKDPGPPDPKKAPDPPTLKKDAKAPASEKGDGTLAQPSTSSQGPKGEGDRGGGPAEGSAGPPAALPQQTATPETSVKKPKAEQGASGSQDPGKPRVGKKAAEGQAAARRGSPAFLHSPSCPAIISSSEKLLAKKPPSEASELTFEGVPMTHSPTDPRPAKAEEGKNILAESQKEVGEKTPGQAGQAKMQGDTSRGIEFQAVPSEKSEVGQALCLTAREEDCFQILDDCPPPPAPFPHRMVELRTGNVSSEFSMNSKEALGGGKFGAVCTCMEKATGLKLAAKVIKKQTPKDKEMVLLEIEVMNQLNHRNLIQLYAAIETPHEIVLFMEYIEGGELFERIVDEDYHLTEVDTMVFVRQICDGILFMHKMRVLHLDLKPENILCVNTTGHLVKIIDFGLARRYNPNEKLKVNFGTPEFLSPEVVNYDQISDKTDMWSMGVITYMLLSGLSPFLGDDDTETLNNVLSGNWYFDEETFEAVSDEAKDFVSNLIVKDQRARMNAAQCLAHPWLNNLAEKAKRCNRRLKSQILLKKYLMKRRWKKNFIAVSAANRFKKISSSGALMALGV
Chain of Calcium/calmodulin-dependent protein kinase type 1 (Homo sapiens) (Q14012 whole entry, looked up): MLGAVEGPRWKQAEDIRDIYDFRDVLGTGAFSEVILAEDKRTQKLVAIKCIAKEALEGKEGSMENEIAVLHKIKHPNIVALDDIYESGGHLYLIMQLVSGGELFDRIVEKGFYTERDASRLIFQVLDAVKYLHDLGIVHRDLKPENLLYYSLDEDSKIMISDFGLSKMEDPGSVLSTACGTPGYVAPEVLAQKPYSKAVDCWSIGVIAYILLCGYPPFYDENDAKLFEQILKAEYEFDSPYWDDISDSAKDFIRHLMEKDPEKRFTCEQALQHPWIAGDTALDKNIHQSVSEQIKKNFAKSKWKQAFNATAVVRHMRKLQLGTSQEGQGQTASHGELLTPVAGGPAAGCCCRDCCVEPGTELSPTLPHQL
Chain of Ribosomal protein S6 kinase alpha-1 (Q15418 whole entry): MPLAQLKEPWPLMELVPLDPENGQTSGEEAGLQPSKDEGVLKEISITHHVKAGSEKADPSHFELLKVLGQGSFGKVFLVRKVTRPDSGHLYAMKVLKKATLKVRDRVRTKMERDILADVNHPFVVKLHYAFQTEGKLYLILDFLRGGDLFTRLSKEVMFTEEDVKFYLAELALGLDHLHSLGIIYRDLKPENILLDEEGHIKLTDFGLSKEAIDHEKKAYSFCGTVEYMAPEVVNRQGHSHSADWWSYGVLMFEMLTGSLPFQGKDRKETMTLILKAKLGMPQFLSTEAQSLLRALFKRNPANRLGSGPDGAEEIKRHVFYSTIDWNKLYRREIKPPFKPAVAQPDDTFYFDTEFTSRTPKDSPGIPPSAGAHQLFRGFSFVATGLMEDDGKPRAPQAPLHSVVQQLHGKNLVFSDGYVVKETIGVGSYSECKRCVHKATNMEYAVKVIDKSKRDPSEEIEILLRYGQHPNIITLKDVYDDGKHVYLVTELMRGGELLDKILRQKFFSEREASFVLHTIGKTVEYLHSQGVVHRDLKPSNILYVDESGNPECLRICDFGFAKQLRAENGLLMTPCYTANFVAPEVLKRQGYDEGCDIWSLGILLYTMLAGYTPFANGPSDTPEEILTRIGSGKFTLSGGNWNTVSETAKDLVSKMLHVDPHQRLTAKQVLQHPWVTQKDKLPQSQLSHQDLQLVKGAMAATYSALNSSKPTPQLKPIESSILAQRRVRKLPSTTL

## CN(C)C/C=C/C(=O)Nc1ccc(C(=O)N2CCCC(Nc3ncc(Cl)c(-c4c[nH]c5ccccc45)n3)C2)cc1 (stereo not drawn)
[1]
  % of control: 91%

## CC[C@@H]1[C@H](F)C(=O)N[C@@H]1COc1nccc2cc(C(N)=O)c(OC)cc12 [ZIMLOVISERTIB]
[2]
  % of inhibition: -6.2%

## Cc1cc(F)c(C(=O)Nc2cccc(-c3nncn3C(C)C)n2)cc1-n1cnc(C2CC2)c1
[3]
  % of control: 100%

## C=CC(=O)Nc1cc(-n2c(=O)ccc3cnc4ccc(-c5ccc(NS(C)(=O)=O)cc5)cc4c32)ccc1C
[4]; at 1 µM
  % of control: 100%
[4]; at 10 µM
  % of control: 99%

## N#Cc1cccc(-c2c[nH]c3ncnc(N4CCOCC4)c23)c1
[5]
  % of inhibition: 13%

## O[C@H]1CC[C@H](Nc2ncc3nc(Nc4c(F)cc(F)cc4F)n([C@H]4CCOC4)c3n2)CC1
[6]
  % of control: 88%

## CNC(=O)Nc1ccc(-c2nc(N3CC4CCC(C3)O4)c3cnn(C4CCC5(CC4)OCCO5)c3n2)cc1
[7]
  % of control: 75%

From ChEMBL document CHEMBL5465560, “Selectivity Literature for EUbOPEN Chemogenomic Library” (2024)
